This is an account of results in US8741934B2, “Inhibitors of ion channels” (Pfizer Limited, priority 2007, dated 2014).

The structures appear in SMILES notation.

In the test the target is T1, hSCN3A sodium channels (Homo sapiens, UniProt Q9NY46).
T1 construct: expressed in transfected cells
The experiment in a line: hSCN3A electrophysiology, Ionworks Quattro automated platform (Table C). The test is classed as cell-based. The following applies: for inhibition at 3 µM: read-out: SCN3A % INHIB HTS IWQ 3 μM; for inhibition at 10 µM: read-out: SCN3A % INHIB HTS IWQ 10 μM. An outline of the steps:
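HEK cells stably expressing hSCN3A were recorded in perforated-patch mode with 100 μg/ml amphotericin on Ionworks Quattro. The protocol used an inactivating step, a brief hyperpolarized partial recovery, then a depolarized test step. Inhibition was taken from current amplitude before versus after compound addition.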

T1 sequence (Q9NY46 whole entry): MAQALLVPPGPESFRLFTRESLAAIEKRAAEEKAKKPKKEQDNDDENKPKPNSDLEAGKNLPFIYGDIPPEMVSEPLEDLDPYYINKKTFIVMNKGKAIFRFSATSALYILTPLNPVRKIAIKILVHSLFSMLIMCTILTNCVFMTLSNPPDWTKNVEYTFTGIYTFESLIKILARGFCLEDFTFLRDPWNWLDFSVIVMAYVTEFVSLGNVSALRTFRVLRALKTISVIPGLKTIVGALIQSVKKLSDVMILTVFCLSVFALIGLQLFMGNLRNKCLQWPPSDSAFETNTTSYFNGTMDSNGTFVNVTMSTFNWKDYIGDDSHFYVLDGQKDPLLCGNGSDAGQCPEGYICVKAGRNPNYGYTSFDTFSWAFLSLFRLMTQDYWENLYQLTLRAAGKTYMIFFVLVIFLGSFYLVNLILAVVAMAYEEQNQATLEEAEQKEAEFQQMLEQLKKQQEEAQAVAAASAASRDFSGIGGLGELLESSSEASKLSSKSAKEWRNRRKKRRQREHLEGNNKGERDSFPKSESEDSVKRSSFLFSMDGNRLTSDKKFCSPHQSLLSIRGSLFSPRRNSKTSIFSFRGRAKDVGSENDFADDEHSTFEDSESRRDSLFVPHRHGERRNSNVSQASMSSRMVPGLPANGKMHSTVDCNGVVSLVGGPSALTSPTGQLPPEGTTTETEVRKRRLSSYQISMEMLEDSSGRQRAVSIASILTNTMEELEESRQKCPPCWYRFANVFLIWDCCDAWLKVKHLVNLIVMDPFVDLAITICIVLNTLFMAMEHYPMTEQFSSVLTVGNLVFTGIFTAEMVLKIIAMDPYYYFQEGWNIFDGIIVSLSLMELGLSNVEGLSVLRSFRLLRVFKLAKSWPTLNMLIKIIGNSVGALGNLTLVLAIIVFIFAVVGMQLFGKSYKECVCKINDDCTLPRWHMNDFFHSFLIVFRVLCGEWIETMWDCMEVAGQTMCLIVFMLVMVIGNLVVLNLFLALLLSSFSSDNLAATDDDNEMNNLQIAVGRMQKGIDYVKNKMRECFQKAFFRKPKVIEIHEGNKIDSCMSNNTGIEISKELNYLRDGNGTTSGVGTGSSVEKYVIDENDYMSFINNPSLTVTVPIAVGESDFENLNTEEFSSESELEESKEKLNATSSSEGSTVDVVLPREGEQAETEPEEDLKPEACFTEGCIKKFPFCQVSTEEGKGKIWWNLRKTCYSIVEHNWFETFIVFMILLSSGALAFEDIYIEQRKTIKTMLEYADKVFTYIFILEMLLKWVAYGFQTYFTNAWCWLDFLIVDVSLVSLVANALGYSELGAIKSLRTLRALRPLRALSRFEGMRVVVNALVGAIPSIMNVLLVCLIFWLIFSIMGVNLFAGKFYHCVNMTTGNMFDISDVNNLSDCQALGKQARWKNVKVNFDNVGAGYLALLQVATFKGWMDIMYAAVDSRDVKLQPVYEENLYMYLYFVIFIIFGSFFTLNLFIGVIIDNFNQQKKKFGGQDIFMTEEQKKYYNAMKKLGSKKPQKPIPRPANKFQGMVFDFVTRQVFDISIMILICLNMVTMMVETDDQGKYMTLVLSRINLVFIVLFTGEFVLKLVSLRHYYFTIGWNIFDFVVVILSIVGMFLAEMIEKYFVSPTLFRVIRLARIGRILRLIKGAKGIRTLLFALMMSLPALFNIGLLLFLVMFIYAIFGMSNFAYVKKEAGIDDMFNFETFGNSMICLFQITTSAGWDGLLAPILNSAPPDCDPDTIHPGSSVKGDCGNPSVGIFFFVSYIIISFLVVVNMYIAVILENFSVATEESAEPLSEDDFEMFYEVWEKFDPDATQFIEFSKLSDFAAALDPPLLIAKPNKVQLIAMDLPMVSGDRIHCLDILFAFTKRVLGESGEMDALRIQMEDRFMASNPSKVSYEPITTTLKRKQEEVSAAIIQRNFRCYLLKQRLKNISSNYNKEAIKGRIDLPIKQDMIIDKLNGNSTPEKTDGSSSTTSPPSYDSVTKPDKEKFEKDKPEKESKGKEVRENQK

Turning to `Cc1nccc(C2CCCN2C(=O)c2ccc(S(=O)(=O)Nc3nccs3)cc2)n1` (centres unmarked) [Example 212, 4-{[2-(2-Methylpyrimidin-4-yl)pyrrolidin-1-yl]carbonyl}-N-1,3-thiazol-2-yl-benzenesulfonamide], the inhibition at 3 µM (3 μM compound) is 14.7%. Where the note is “10 μM compound”, the inhibition at 10 µM was -8.45%.
The corresponding values for `COc1ccc(CCNC(=O)c2ccc(S(=O)(=O)Nc3nccs3)cc2)cc1` [Example 169, N-[2-(4-methoxyphenyl)ethyl]-4-[(1,3-thiazol-2-ylamino)sulfonyl]benzamide] are 35.3% and 27.3%.
The corresponding values for `CC(c1ccccc1)N(CCO)C(=O)c1ccc(S(=O)(=O)Nc2nccs2)cc1` (centres unmarked) [Example 229, N-(2-hydroxyethyl)-N-(1-phenylethyl)-4-[(1,3-thiazol-2-yl-amino)sulfonyl]benzamide] are 12.5% and 3.91%.
The corresponding values for `O=C(c1ccc(S(=O)(=O)Nc2nccs2)cc1)N1CCCCC1c1ccccn1` (centres unmarked) [Example 238, 4-[(2-Pyridin-2-ylpiperidin-1-yl)carbonyl]-N-1,3-thiazol-2-yl-benzenesulfonamide] are 3.68% and 9.77%.
Regarding `CC(Cc1ccc(F)c(F)c1)NC(=O)c1ccc(S(=O)(=O)Nc2nccs2)cc1` (centres unmarked) [Example 151, N-[2-(3,4-difluorophenyl)-1-methylethyl]-4-[(1,3-thiazol-2-ylamino)sulfonyl]benzamide], the inhibition at 3 µM (3 μM compound) is 17.4%. Further, the inhibition at 10 µM (10 μM compound) came to 12.7%.
The corresponding values for `O=C(N[C@@H]1CCC[C@@H]1c1ccccc1)c1ccc(S(=O)(=O)Nc2nccs2)cc1` [Example 138, N-[(1R,2R)-2-phenylcyclopentyl]-4-[(1,3-thiazol-2-ylamino)sulfonyl]benzamide] are 16.2% and 11.2%.
The corresponding values for `Cc1cccc(CN2CCN(C(=O)c3ccc(S(=O)(=O)Nc4nccs4)cc3)CC2=O)c1` [Example 276, 4-{[4-(3-Methylbenzyl)-3-oxopiperazin-1-yl]carbonyl}-N-1,3-thiazol-2-yl-benzenesulfonamide] are 18.1% and 20.6%.
The corresponding values for `Cc1cnc(NC(=O)c2ccc(S(=O)(=O)Nc3nccs3)cc2)c(C)c1` [Example 184, N-(3,5-dimethylpyridin-2-yl)-4-[(1,3-thiazol-2-ylamino)sulfonyl]benzamide] are 29% and 20.8%.
Take `O=C(c1ccc(S(=O)(=O)Nc2nccs2)cc1)N1CCOC(C2CC2)C1` (centres unmarked) [Example 231, 4-[(2-Cyclopropylmorpholin-4-yl)carbonyl]-N-1,3-thiazol-2-yl-benzenesulfonamide]: where the note is “3 μM compound”, the inhibition at 3 µM amounted to 3.22%. Moreover, the inhibition at 10 µM (10 μM compound) was -7.02%.
Regarding `Cc1ccc(C2CCCCN2C(=O)c2ccc(S(=O)(=O)Nc3nccs3)cc2)cc1` (stereo not drawn) [Example 207, 4-{[2-(4-Methylphenyl)piperidin-l-yl]carbonyl}-N-1,3-thiazol-2-yl-benzenesulfonamide], the “SCN3A % INHIB HTS IWQ 3 μM” value (3 μM compound) stood at 27.25%. For the same molecule, under “10 μM compound”, the “SCN3A % INHIB HTS IWQ 10 μM” value is given as −16.86%.
Turning to `COc1ccc(CC2CCCN2C(=O)c2ccc(S(=O)(=O)Nc3nccs3)cc2)cc1` (centres unmarked) [Example 206, 4-{[2-(4-Methoxybenzyl)pyrrolidin-1-yl]carbonyl}-N-1,3-thiazol-2-yl-benzenesulfonamide], the inhibition at 3 µM (3 μM compound) amounted to 4.17%. Moreover, the inhibition at 10 µM (10 μM compound) came out at 16.7%.
Turning to `O=C(c1ccc(S(=O)(=O)Nc2nccs2)cc1)N(Cc1ccc(F)cc1)C1CC1` [Example 230, N-cyclopropyl-N-(4-fluorobenzyl)-4-[(1,3-thiazol-2-yl-amino)sulfonyl]benzamide], under “3 μM compound”, the inhibition at 3 µM came to 16.7%. The inhibition at 10 µM (10 μM compound) is -0.51%.
Consider `O=C(NCC1(c2ccccc2)CC1)c1ccc(S(=O)(=O)Nc2nccs2)cc1` [Example 153, N-[(1-phenylcyclopropyl)methyl]-4-[(1,3-thiazol-2-ylamino)sulfonyl]benzamide], for which, where the note is “3 μM compound”, the inhibition at 3 µM is 15.9%. The inhibition at 10 µM (10 μM compound) came to 32.9%.
